Test results reported in PubChem BioAssay AID1241 (SRMLSC, 2008).
pEC50: −log10 of the molar value.

assay: NF-kB promoter reporter activators, neuronal cells, dose response, cell-based, SH-SY5Y, luciferase (AID 1241); conditions: fold induction

SMILES | pEC50
Cc1cc(C(=O)Nc2nc3c(s2)CCCC3)cs1 | 5.79
COc1ccc(Nc2nc(-c3cccs3)cs2)c(OC)c1 | 5.63
COCCNc1nc(-c2cc3ccccc3o2)cs1 | 5.86
Cc1nc(Sc2nnnn2C)c2c3c(sc2n1)CCC3 | 5.80
Cc1cc(C=C2C(=O)c3ccccc3C2=O)c(C)n1C | 5.55
Oc1c(C2=NCCNC(C(F)(F)F)=C2)ccc2ccccc12 | 4.75

Continued, values first:

pEC50 | SMILES
5.08 | COc1ccc(N2C(=S)NC3N2C(=S)NC3(C)c2ccccc2)cc1 (centres undefined)
5.65 | CCOC(=O)c1sc(=NC(=O)c2ccccc2)n(C)c1C
5.54 | CCc1ccc(NC(=O)c2cc(C)on2)cc1
5.66 | CC(=O)Nc1cccc(-c2csc(Nc3ccc(Cl)cn3)n2)c1
5.44 | Nc1cccn2c(-c3ccc(Cl)cc3)cnc12
6.02 | O=C(/C=C/Nc1ccc(F)c(F)c1)c1cccs1
4.85 | O=C(CSc1nnnn1-c1ccccc1)Nc1nsc(-c2ccccc2)n1
5.42 | CSc1ccc(C(=O)/C=C/c2ccc(N)cc2)cc1
